# Assay results from US10874733B2 (priority 2016, dated 2020).
# Key:
# Type in all cases: physicochemical
# [1] = Liposome size homogeneity (PDI, size distribution) by dynamic light scattering; conditions: for Liposome PDI: DMPC:DOTAP liposome
# Description: 1 mL of each of the sample of the lipid dissolution step and 1 mL of a sample obtained by simply mixing the glycolipid of Preparation Example 2-(3) with liposome were added to a cuvette, and a hydrodynamic size and distribution were analyzed using a dynamic light-scattering apparatus (Malvern instrument, ZSP nano) (Table 3, FIGS. 3 and 4). FIG. 3 is a diagram showing a liposome size distribution in a lipid-solubilization step, and FIG. 4 is a diagram showing a liposome size distribution in a step of simply mixing glycolipid with a liposome.
# [2] = Liposome surface charge (zeta potential); conditions: for Liposome surface charge (mV): DMPC:DOTAP liposome
# Description: 1 mL of each of the sample of the lipid dissolution step and 1 mL of a sample obtained by simply mixing the glycolipid of Preparation Example 2-(3) with a liposome were loaded on a cuvette for measuring a surface charge (zeta potential), and a surface charge was measured using a dynamic light-scattering apparatus (Malvern instrument, ZSP nano) (Table 4).
# [3] = Liposome size by dynamic light scattering (hydrodynamic size); conditions: for Liposome size (d, nm): DMPC:DOTAP liposome
# Description: 1 mL of each of the sample of the lipid dissolution step and 1 mL of a sample obtained by simply mixing the glycolipid of Preparation Example 2-(3) with liposome were added to a cuvette, and a hydrodynamic size was measured using a dynamic light-scattering apparatus (Malvern instrument, ZSP nano) (Table 2).
# [4] = lipid dissolution step, glycolipid content 1 mol %
# [5] = lipid dissolution step, glycolipid content 3 mol %
# [6] = lipid dissolution step, glycolipid content 6 mol %
# [7] = step of simple mixing with liposome, glycolipid content 1 mol %
# [8] = step of simple mixing with liposome, glycolipid content 3 mol %
# [9] = step of simple mixing with liposome, glycolipid content 6 mol %
substance,measurement,setting,value
Monophosphoryl lipid A [MPL],Liposome PDI,[1]; [4],0.353
same,Liposome PDI,[1]; [5],0.412
same,Liposome PDI,[1]; [6],0.405
same,Liposome PDI,[1]; [7],0.552
same,Liposome PDI,[1]; [8],0.793
same,Liposome PDI,[1]; [9],0.887
same,Liposome size distribution,"[1]; glycolipid incorporated during lipid dissolution (encapsulated liposome), FIG. 3",not uniform
same,Dispersibility of the liposome (PDI),"[1]; over glycolipid contents 6, 3, 1 mol %",increased depending on concentration
same,Liposome size distribution,"[1]; simple mixing of liposome with glycolipid (adsorbed liposome), FIG. 4",not uniform
same,Liposome surface charge (mV),[2]; [4],57.0 ± 3.0 mV
same,Liposome surface charge (mV),[2]; [5],56.2 ± 0.6 mV
same,Liposome surface charge (mV),[2]; [6],23.7 ± 0.6 mV
same,Liposome surface charge (mV),[2]; [7],57.8 ± 1.6 mV
same,Liposome surface charge (mV),[2]; [8],56.9 ± 3.4 mV
same,Liposome surface charge (mV),[2]; [9],48.5 ± 1.4 mV
same,Surface charge change,[2]; mixed at a high content of 6 mol %,decreased sharply
same,"Liposome size (d, nm)","[3]; glycolipid incorporated in lipid dissolution step, glycolipid content 6 mol %",355.4 nm
same,"Liposome size (d, nm)",[3]; [4],367.9 nm
same,"Liposome size (d, nm)",[3]; [5],309.2 nm
same,"Liposome size (d, nm)",[3]; [7],694.9 nm
same,"Liposome size (d, nm)",[3]; [8],1206.1 nm
same,"Liposome size (d, nm)",[3]; [9],1538.7 nm
same,Change of liposome size on simple mixing with a liposome,[3]; glycolipid simply mixed with liposome,tended to increase in size
